SMILES strings stand for the structures. Read-outs that look alike come from different tables or passages of the source.

The conditions of data set [1]: high-dose intraocular, long-term follow-up; cited from earlier work.
For data set [2] the following is noted: 0.59 mg intravitreal implant, patients with diabetic macular edema; cited from earlier work.
For data set [3] the following is noted: implantation of 0.59 mg or 2.1 mg, noninfectious posterior uveitis patients; cited from earlier work.
For data set [4] the following is noted: rabbit, in vivo. An excerpt:
Analytes and internal standard (roxithromycine) were extracted from the tissues using acetonitrile and separated by reverse phase liquid chromatography with a C8 column and a gradient mobile phase. […] The unweighed linear model was applied.

For data set [5] the following is noted: cited from earlier work.
The conditions of data set [6]: subtenon administration; cited from earlier work.
The mark [7] stands for this setting: single oral administration of 7.5 mg dexamethasone.

As for `CC1(C)O[C@@H]2C[C@H]3[C@@H]4C[C@H](F)C5=CC(=O)C=C[C@]5(C)[C@@]4(F)[C@@H](O)C[C@]3(C)[C@]2(C(=O)CO)O1` [fluocinolone acetonide], in data set [1], the “Eyes developing elevated IOP” value is listed as 100%, the “Eyes requiring implant removal” value is listed as “approximately 60%” and the “Eyes showing nonischemic central retinal vein occlusion” value is given as 30%. Moreover, in data set [2], the Serious cataract progression is 43.1% and the “Serious intraocular pressure rise” value was 8.6%. For the same compound, the “Augmentation of the need of IOP lowering agents” value in data set [3] is recorded as 5 fold.

For the compound `C[C@@H]1C[C@H]2[C@@H]3CCC4=CC(=O)C=C[C@]4(C)[C@@]3(F)[C@@H](O)C[C@]2(C)[C@@]1(O)C(=O)CO` [D, dexamethasone], the “Concentration in choroid, mean” value turned out to be 12 nmol/g in data set [4] (1 days); 12 nmol/g in data set [4] (7 days); 9 nmol/g in data set [4] (14 days); 4 nmol/g in data set [4] (28 days); 3 nmol/g in data set [4] (60 days). Further, the “Concentration in retina, mean” value in data set [4] (1 days) was found to be 7 nmol/g; in data set [4] (7 days) it was 11 nmol/g; in data set [4] (14 days), 6 nmol/g; in data set [4] (28 days) it was 4 nmol/g; in data set [4] (60 days), 2 nmol/g. In data set [4] (60 days), the “Concentration in aqueous humor, mean” value came out at 0 nmol/g. In addition, the “Dexamethasone penetration into the vitreous humour” value in data set [5] (repeated topical application: 1 drop of 0.1% dexamethasone phosphate drops hourly for 10 hours) is reported as “less than 2 ng/ml”. Besides, in data set [5] (setting [7]), the Serum level was 60 ng/mL. In addition, the Vitreous level in data set [5] (setting [7]) was 5 ng/mL.

Regarding `CC1(C)O[C@@H]2C[C@H]3[C@@H]4CCC5=CC(=O)C=C[C@]5(C)[C@@]4(F)[C@@H](O)C[C@]3(C)[C@]2(C(=O)CO)O1` [triamcinolone acetonide], the “Patients with intraocular pressure rise” value in data set [6] was 21%.

Values taken from patent US8227452B2, “Use of a steroid prodrug for the treatment of disease of the posterior segment of the eye” (Novagali Pharma SA, priority 2006, dated 2012).
